Laboratory results: ChEMBL document CHEMBL2321700, “Bodilisant-a novel fluorescent, highly affine histamine h3 receptor ligand” (ACS Med Chem Lett, 2013)

Assays:
[1] = molecular target: D(1B) dopamine receptor (Homo sapiens, UniProt P21918); experiment: Displacement of [3H]SCH23390 from human dopamine D5 receptor expressed in HEK cells; type: cell-based, HEK293
[2] = molecular target: D(3) dopamine receptor (Homo sapiens, UniProt P35462); experiment: Displacement of [3H]spiperone from human dopamine D3 receptor expressed in CHO-K1 cells; type: cell-based
[3] = molecular target: D(2) dopamine receptor (Homo sapiens, UniProt P14416); experiment: Displacement of [3H]spiperone from human dopamine D2short receptor expressed in CHO-K1 cells; type: cell-based
[4] = molecular target: D(1A) dopamine receptor (Homo sapiens, UniProt P21728); experiment: Displacement of [3H]SCH23390 from human dopamine D1 receptor expressed in HEK cells; type: cell-based, HEK293
[5] = molecular target: Histamine H4 receptor (Homo sapiens, UniProt Q9H3N8); experiment: Displacement of [3H]histamine from human histamine H4 receptor expressed in Sf9 cells
[6] = molecular target: Histamine H1 receptor (Homo sapiens, UniProt P35367); experiment: Displacement of [3H]pyrilamine from human histamine H1 receptor expressed in CHO-K1 cells; type: cell-based
[7] = molecular target: Histamine H3 receptor (Homo sapiens, UniProt Q9Y5N1); experiment: Displacement of [3H]Nalpha-methylhistamine from human recombinant histamine H3 receptor expressed in HEK-293 cells; type: cell-based, HEK293
Sequence of Histamine H3 receptor (Q9Y5N1 whole entry): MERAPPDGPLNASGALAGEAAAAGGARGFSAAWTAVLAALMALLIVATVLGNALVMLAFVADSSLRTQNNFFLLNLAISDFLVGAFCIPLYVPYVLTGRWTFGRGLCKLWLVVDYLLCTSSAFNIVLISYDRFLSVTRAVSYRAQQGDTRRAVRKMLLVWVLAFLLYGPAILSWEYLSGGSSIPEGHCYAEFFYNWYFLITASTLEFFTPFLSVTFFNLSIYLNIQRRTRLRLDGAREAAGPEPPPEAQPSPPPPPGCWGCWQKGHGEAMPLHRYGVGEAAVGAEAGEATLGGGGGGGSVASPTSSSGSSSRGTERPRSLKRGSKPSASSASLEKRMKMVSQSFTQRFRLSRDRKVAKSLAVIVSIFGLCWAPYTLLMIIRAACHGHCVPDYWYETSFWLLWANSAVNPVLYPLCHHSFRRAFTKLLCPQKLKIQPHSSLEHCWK

Sequence of D(1B) dopamine receptor (P21918 whole entry): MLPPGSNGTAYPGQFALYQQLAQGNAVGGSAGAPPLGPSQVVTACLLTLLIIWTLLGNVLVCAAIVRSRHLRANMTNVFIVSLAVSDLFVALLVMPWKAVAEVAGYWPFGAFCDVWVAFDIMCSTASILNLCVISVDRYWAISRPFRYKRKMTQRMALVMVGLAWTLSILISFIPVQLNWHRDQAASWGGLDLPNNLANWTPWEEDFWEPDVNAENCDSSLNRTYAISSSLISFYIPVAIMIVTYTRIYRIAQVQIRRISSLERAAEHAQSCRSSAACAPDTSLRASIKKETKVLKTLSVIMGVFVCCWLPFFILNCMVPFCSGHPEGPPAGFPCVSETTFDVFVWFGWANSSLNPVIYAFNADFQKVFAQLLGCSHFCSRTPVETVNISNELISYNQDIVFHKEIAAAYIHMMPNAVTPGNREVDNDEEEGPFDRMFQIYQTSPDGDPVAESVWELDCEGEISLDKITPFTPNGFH
Sequence of D(2) dopamine receptor (P14416 whole entry): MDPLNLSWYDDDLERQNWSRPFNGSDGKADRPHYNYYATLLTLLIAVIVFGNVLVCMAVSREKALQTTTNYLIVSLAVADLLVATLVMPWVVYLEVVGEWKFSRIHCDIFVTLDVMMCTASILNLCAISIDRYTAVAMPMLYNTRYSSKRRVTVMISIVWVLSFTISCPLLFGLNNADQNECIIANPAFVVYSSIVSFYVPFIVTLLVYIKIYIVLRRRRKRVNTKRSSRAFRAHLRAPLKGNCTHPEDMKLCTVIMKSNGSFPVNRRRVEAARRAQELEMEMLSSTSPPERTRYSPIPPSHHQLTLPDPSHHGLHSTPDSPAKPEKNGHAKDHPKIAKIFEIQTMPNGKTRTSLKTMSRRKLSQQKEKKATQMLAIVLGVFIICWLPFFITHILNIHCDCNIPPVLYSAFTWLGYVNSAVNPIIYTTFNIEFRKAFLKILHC
Sequence of Histamine H1 receptor (P35367 whole entry): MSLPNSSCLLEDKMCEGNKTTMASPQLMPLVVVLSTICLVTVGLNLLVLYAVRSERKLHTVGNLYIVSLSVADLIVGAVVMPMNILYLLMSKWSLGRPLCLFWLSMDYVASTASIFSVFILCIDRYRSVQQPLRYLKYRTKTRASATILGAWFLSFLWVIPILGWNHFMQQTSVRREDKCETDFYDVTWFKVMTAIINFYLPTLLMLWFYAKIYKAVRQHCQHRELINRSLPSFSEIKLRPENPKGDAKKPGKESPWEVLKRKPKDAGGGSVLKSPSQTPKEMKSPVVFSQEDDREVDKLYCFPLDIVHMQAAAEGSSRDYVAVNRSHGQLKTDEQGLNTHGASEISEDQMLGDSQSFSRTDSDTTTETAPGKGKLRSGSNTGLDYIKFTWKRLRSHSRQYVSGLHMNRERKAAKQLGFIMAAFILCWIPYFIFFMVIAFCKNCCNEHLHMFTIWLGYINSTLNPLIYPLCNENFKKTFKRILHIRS
Sequence of D(3) dopamine receptor (P35462 whole entry): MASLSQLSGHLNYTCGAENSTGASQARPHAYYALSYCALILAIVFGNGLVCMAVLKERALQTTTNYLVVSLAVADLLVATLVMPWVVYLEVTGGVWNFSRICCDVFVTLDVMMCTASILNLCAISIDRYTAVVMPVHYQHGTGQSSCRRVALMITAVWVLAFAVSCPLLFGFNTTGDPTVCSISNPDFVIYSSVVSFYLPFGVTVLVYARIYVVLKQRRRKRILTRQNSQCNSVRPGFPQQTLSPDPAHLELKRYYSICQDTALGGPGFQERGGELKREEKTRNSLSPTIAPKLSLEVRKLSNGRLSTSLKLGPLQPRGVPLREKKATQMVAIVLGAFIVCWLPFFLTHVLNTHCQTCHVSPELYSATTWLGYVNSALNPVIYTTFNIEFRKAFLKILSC
Sequence of D(1A) dopamine receptor (P21728 whole entry): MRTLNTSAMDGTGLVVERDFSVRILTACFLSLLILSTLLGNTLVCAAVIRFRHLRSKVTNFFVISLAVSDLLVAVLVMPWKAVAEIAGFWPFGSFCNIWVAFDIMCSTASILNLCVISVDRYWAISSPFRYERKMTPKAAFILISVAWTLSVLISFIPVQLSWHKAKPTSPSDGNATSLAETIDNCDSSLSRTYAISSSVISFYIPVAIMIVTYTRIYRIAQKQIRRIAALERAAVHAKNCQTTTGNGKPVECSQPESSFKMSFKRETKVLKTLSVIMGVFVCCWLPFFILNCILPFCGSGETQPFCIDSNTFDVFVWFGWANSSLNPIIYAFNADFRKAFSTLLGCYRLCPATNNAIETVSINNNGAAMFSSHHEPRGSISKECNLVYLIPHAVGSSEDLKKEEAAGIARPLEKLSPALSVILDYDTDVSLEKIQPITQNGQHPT

Ki [1]: 5210 nM | Ki [2]: 1490 nM | Ki [3]: 1970 nM | Ki [4]: 12500 nM | Ki [5]: 7480 nM | Ki [6]: 1660 nM | Ki [7]: 6.51 nM
Compound: CC1=CC(C)=[N+]2C1=C(c1ccc(OCCCN3CCCCC3)cc1)c1c(C)cc(C)n1[B-]2(F)F [BODILISANT]
